Key:
TFH cells = assay: OVA/Alum immunization with 4EGI-1 throughout the response; type: in vivo, mouse
Procedure: Single cell suspensions were stained with a viability marker diluted 1:1000 in PBS for 10 minutes, washed in PBS, and stained with antibodies to specific cell surface markers. Viability dye, antibody clones, and dilutions used to identify these populations are detailed in Table 2. Identification of cellular subsets in mice is detailed in FIGS. 1A-1N, 3A-3C, and 6A-6C). In brief, the following gating strategy was used to identify mouse TFH cells (CD4^+ PD1^+ CXCR5^+), TFR cells (CD4^+ PD1^+ CXCR5^+ Foxp3^+), IL-21^+ CD4^+ T cells (CD4^+ VFP^3+), IL-4^+ CD4^+ T cells (CD4^+ GFP^+) OT2 T cells (CD4^+ CD45.2^+ Vβ5^+), OT2 TFH cells (CD4^+ CD45.2^+ Vβ5^+ PD1^+ CXCR5^+), 2D2 T cells (CD4^+ CD45.2^+ Vα3.2^+), TFH-like 2D2 T cells (CD4^+ CD45.2^+ […]), plasma cells (B220^− CD138^+), plasmablasts (B220^mid CD138^+), GC B cells (B220^+ GL7^+ Fas^+), Light zone GC B cells (B220^+ GL7^+ Fas^+ CD86^+), dark zone GC B cells (B220^+ GL7^+ Fas^+ CXCR4^+), IgG1 switched GC B cells (B220^+ GL7^+ Fas^+ IgG1^+), OVA-specific GC B cells (B220^+ GL7^+ Fas^+ OVA-647^+), skin neutrophils (Ly6G^+ CD11b^+), lung eosinophils (SiglecF^+CD11c^−), brain and SC CD4^+ T cells (CD45^+ CD4^+). CD4^+ T cell expression of surface ICOS, PD-1, CXCR5, CD28, SLAM, OX-40 and intranuclear BCL6 was also determined. All flow cytometry procedures were performed on a ZE5 Cell Analyzed (Bio-Rad) and analyzed using FlowJo software (TreeStar).
OVA protein (Sigma A5503) was diluted in PBS and then in 20 mg/mL Imject Alum (ThermoFisher 77161) and mixed at room temperature for 30 minutes prior to i.p. injection of 100 μg OVA in 200 μL. When stated, mice were treated i.p. daily from day 0 to 6 or day 0 to 13 (just for TFR analysis) following OVA/Alum immunization with 25 mg/kg 4EGI-1 (MedChemExpress) or from day 7 to 13 following OVA/Alum immunization with 50 mg/kg or 75 mg/kg 4EGI-1. Vehicle control mice were administered 6 μL DMSO in 194 μL PBS i.p.
Spleens from OVA/Alum immunized mice treated with vehicle or 4EGI-1 were harvested, embedded in OCT, and frozen immediately on dry ice. Five-micron thick cryosections were cut and fixed in acetone for 10 min. Slides were blocked with 1% BSA and stained with anti-CD4 conjugated to Alexa Fluor 647 and anti-B220 Alexa Fluor 555. Antibody clones are detailed in Table 2. Following 3 washes with PBS, slides were mounted with DAPI fluoromount (VECTASHIELD) and sealed with clear nail polish. Staining was visualized and tiled using a Zeiss 700 laser scanning inverted confocal microscope.
B cell (Alexa fluor 555) and CD4^+ T cell (Alexa fluor 647) channels were split using FIJI, and B cell zones were manually outlined. This outline was overlaid upon the CD4^+ T cell stain and intensity of CD4^+ T cell staining within these zones was measured using FIJI and normalized to a fixed area of 500 microns
PVDF-coated 96-well plates (Millipore) were activated with methanol for 2 minutes, washed with PBS, and coated with 4 μg/mL OVA overnight at 4° C. Plates were blocked with 1% BSA for 2 hours at 37° C. prior to incubation with 1×10^7 splenocytes in RPMI containing 2% Ultra-low IgG FCS, 55 μM 2ME, and 100 U/mL penicillin and 100 μg/mL streptomycin in the top well. Cells were diluted by 1/2 each row going down the plate and incubated immobile overnight at 37° C. Plates were washed with water+0.05% Tween 20 for 5 min prior to 3 washes in PBS+0.05% Tween-20 for 10 minutes. Plates were incubated with 1:1000 HRP-coupled goat anti-mouse IgG1 antibody (Southern Biotech) in PBS+0.05% Tween 20 for 2 h prior to 3 washes in PBS+0.05% Tween 20 and incubation in tetramethylbenzidine (TMB) ELISA substrate buffer (ThermoFisher). Plates were washed once in distilled deionized water and spots were manually enumerated and antibody-secreting cells (ASC) per million splenocytes was determined.
For quantification of OVA-specific IgG1, high-binding 96-well plates (Costar) were coated with 10 μg/mL OVA protein. […]

[1] = system: human lymph node CD4+ CD45RO+ T cells; assay: In vitro treatment of human lymph node cells with 4EGI-1; type: cell-based; conditions: 4EGI-1 overnight, three patients
Procedure: Discarded, deidentified, reactive, but non-malignant human lymph node single cell suspensions were obtained. Presence of TFH cells was confirmed by identification of CD4^+ CD45RO^+ T cells that are PD1^+ CXCR5^+ BCL6^+ and ICOS^+. Lymph node suspensions were incubated overnight at 37° C. in X-VIVO media (Lonza) containing 5% human AB serum (Sigma) and Glutamax with 0-25 μM 4EGI-1. Cells were then stained with a live/dead viability marker and then for extracellular expression of human CD4, CD45RO, CXCR5, PD-1, or ICOS or intranuclear expression of BCL6. Expression of markers was normalized to % of control (0 μM 4EGI-1) to allow for combined statistical analysis of all 3 patients. Antibody clones and dilutions used to identify these populations are detailed in Table 2.

pre-existing TFH cells = conditions: 75 mg/kg, mice (Sekiyama et al.); cited from earlier work
[2] = cytokine reporter mice, OVA-Alum immunization

## O=C(O)C(Cc1ccccc1[N+](=O)[O-])=NNc1nc(-c2ccc(Cl)c(Cl)c2)cs1 (mixture of isomers) [4EGI-1]
TFH cells; 25 mg/kg daily, OVA/Alum, day 7
  reduction of TFH cells in spleen: 3.5 fold
TFH cells; 25 mg/kg daily, OVA/Alum, spleen, day 7
  overall CD4+ T cell numbers: did not alter
TFH cells; 25 mg/kg daily, OVA/alum
  CD4+ T cell activation (CD44high): did not affect
  CD4+ T cell division: did not affect
  CD4+ T cell expression of CD28: decreased by half
  CD4+ T cell expression of OX40: not affected
  CD4+ T cell expression of SLAM: decreased by half
  levels of expression of ICOS on CD4+ T cells: did not affect
  reduction of expression of PD-1 on splenic CD4+ T cells: more than half
  reduction of expression of intranuclear BCL6 in splenic CD4+ T cells: more than half
  reduction of expression of surface CXCR5 on splenic CD4+ T cells: more than half
TFH cells; 25 mg/kg daily, OVA/alum, splenic sections
  infiltration of CD4+ T cells in B cell zones: almost abolished
TFH cells; 4EGI-1 for 14 days, measured at day 14, OVA/Alum
  reduction of TFR cells: 3 fold
TFH cells; OVA/Alum, ELISA
  serum OVA-specific IgG1 antibody: reduced by half
TFH cells; OVA/Alum, ELISPOT, splenocytes
  OVA-specific IgG1 antibody secreting cells (ASCs): almost abolished
TFH cells; OVA/Alum, spleen, day 7
  decrease of GC B cells in the CD86+ light zone (LZ): 3 fold
  decrease of GC B cells in the CXCR4+ dark zone (DZ): 3 fold
  decrease of GC B cells that are class switched IgG1+: 3 fold
  decrease of OVA-specific GC B cells: 3 fold
  decrease of number of total GC B cells: 3 fold
  reduction of number of total plasma cells: 2 fold
  reduction of number of total plasmablasts: 2 fold
TFH cells; [2]
  decrease of total number of CD4+ T cells producing IL-4 (GFP+) in the spleen: 2.5 fold
  decrease of total number of CD4+ T cells producing IL-21 (VFP+) in the spleen: 2.5 fold
[1]; 0-30 μM / 0-25 μM
  levels of BCL6 protein: rapidly reduced
[1]
  cell viability: no effect
pre-existing TFH cells
  safety of the dose: within its safety range
